The text below walks through data of patent US8304393B2, “Epithelial cell growth promoter” (Patent Technology Development Inc., priority 2004, dated 2012).

A value given as a limit tells only on which side of the number the result lay.

The assay has as its system murine HBKs (hair bulb keratinocytes). As to the kind of experiment: HBK growth test (Example 5, AlamarBlue). Format: cell-based, mouse. The note with it: for cell growth effect as compared with that on the control: 4 days culture; for concentration at which significant difference from control could be noted: Dunnett's multiple comparison test, p<0.05. The text has this:
The epithelial cell growth promoters of Examples 1 and 2 and Reference Examples 1 and 2 were subjected to a cell growth test for murine HBKs, respectively. The following culture medium and test medium were used.
DMEM (product code “D-5523”, a product by Sigma)
FBS (product code “10100756”, a product by Cansera International Inc.)
• 10% Penicillin/streptomycin (product code “15140-122”, a product by GIBCO) • 1% (b) Test medium MCDB153 (product code “M7403”, a product by Sigma) Insulin (product code “16634”, bovine, a product by Sigma) • 5 μg/ml Apo-transferrin (product code “T1147”, human, a product by Sigma) • 10 μg/ml EGF (product code “01-101”, murine, a product by Upstate Biotechnology Inc.) • […] BPE (product code “13028-014”, bovine pituitary extract, a product by GIBCO) • 35 μg/ml Water-soluble hydrocortisone (product code “174-00”, a product by NACALAI TESQUE INC.) • 0.5 μg/ml Ethanolamine (product code “012-12455”, a product of Wako Pure Chemical Industries Ltd.) • 100 μM o-phosphorylethanolamine (product code “P0503”, a product by Sigma) • 100 μM
The skin of a 5 day-old mouse was cut with a scalpel into strips of approximately 2-mm-wide skin slices, which were in turn immersed in a solution prepared by dissolving dispase (lot No. 0101, a product by GODO SHUSEI CO.) at a proportion of 500 U/ml in DMEM (product code “D-5523”, a product by Sigma) containing FBS (product code “10100756”, a product by Cansera International Inc.) in a concentration of 5%, and then kept standing at 4° C. for 16 hours. Subsequently, the epidermis was ablated and removed with tweezers from the skin slices to collect only dermis tissues. The thus obtained dermis tissues were immersed in PBS (−) (product code “P-4417”, a product by Sigma) and cut into strips with opthalmological scissors. The thus obtained strips were immersed in a solution prepared by dissolving collagenase (lot No. 001014W, a product by Nitta Gelatin Inc.) in a concentration of 0.2% in DMEM containing FBS in a concentration of 5%, and then digested at 37° C. for 1 hour. After centrifugation at 1000 rpm for 5 minutes, the supernatant was removed, and the residue was supplemented with PBS (−) and gently pipetted to prepare a dermis suspension.
For separating dermal fibroblasts and hair bulbs, the dermis suspension was kept standing for 15 minutes to precipitate only the hair bulbs. The hair bulbs obtained by repeating the “standing to precipitation” procedure three times were immersed in a solution prepared by dissolving, in 2.65 mM EDTA aqueous solution, trypsin in a concentration of 0.25%, and then treated at 37° C. for 5 minutes to prepare a dispersion solution of HBKs.
Next, this dispersion solution was centrifuged at 1000 rpm for 5 minutes. After this centrifugation, the supernatant was removed. The thus obtained HBKs were dispersed in a culture medium, then inoculated into a collagen-coated 96-well microplate, and cultured at 37° C. in an atmosphere containing 5% CO2.
The isoleucyl-glycyl-serine (hereinafter, abbreviated to IGS), prolyl-isoleucyl-glycine (hereinafter, abbreviated to PIG), prolyl-isoleucyl-glycyl-serine (SEQ ID NO: 2) (hereinafter, abbreviated to PIGS), and glycyl-prolyl-isoleucyl-glycine (SEQ ID NO: 1) (hereinafter, abbreviated to GPIG) obtained in Examples 1 and 2 and Reference Examples 1 and 2 were separately dissolved in a test media to prepare 6 types of sample solutions each in a concentration of 0.3 μM, 1 μM, 3 μM, 10 μM, 30 μM, and 100 μM. Only a test medium was used as a control.
After 24 hours from the inoculation of the cells, the culture solutions were removed, and the cultured cells were washed with an MCDB153 solution. Each of the above-mentioned sample solutions was added to the cultured cell at 100 μl/well and cultured at 37° C. in an atmosphere containing 5% CO2. […]

For `CC[C@H](C)[C@H](NC(=O)[C@@H]1CCCN1C(=O)CN)C(=O)NCC(=O)O` (racemic) [GPIG, glycyl-prolyl-isoleucyl-glycine], the “concentration at which significant difference from control could be noted” value was ≥ 0.3 µM. Further, the “cell growth effect as compared with that on the control” value (0.3 μM) is reported as 105%. In addition, the “cell growth effect as compared with that on the control” value (1 μM) was found to be 108%. Also, the “cell growth effect as compared with that on the control” value (3 μM) is 118%. Besides, for the setting “10 μM”, the “cell growth effect as compared with that on the control” value stood at 133%. For the setting “30 μM”, the “cell growth effect as compared with that on the control” value came out at 134%. The “cell growth effect as compared with that on the control” value (100 μM) worked out at 138%.

Turning to `CC[C@H](C)[C@H](N)C(=O)NCC(=O)N[C@@H](CO)C(=O)O` (racemic) [IGS, isoleucyl-glycyl-serine], the “concentration at which significant difference from control could be noted” value was ≥ 10 µM. For the same compound, the “cell growth effect as compared with that on the control” value (0.3 μM) worked out at 98%. Also, the “cell growth effect as compared with that on the control” value (1 μM) is 103%. Moreover, under “3 μM”, the “cell growth effect as compared with that on the control” value came out at 106%. Also, under “10 μM”, the “cell growth effect as compared with that on the control” value was determined as 124%. Also, the “cell growth effect as compared with that on the control” value (30 μM) came to 134%. The “cell growth effect as compared with that on the control” value (100 μM) stood at 133%.

For the compound `CC[C@H](C)[C@H](NC(=O)[C@@H]1CCCN1)C(=O)NCC(=O)O` (racemic) [PIG, prolyl-isoleucyl-glycine], the “concentration at which significant difference from control could be noted” value is ≥ 1 µM. Also, the “cell growth effect as compared with that on the control” value (0.3 μM) stood at 101%. Also, where the note is “1 μM”, the “cell growth effect as compared with that on the control” value is 103%. For the same compound, the “cell growth effect as compared with that on the control” value (3 μM) amounted to 113%. Moreover, the “cell growth effect as compared with that on the control” value (10 μM) is reported as 132%. For the same compound, where the note is “30 μM”, the “cell growth effect as compared with that on the control” value worked out at 131%. Besides, the “cell growth effect as compared with that on the control” value (100 μM) was 134%.

Regarding `CC[C@H](C)[C@H](NC(=O)[C@@H]1CCCN1)C(=O)NCC(=O)N[C@@H](CO)C(=O)O` (racemic) [PIGS, prolyl-isoleucyl-glycyl-serine], the “concentration at which significant difference from control could be noted” value is ≥ 3 µM. Further, the “cell growth effect as compared with that on the control” value (0.3 μM) stood at 104%. Further, the “cell growth effect as compared with that on the control” value (1 μM) is 103%. For the same compound, the “cell growth effect as compared with that on the control” value (3 μM) was 108%. For the same compound, the “cell growth effect as compared with that on the control” value (10 μM) came to 110%. Besides, the “cell growth effect as compared with that on the control” value (30 μM) is listed as 127%. The “cell growth effect as compared with that on the control” value (100 μM) is 133%.
